Reference: publication PMC1458514 (Nucleic Acids Research, 2006)

What was measured:
Oligoribonuclease (Orn) = biological target: T1, Oligoribonuclease (Orn) (Escherichia coli, UniProt P0A784); test: Cy5-RNA 5mer degradation assay; assay type: biochemical
T1 sequence (P0A784 2-181): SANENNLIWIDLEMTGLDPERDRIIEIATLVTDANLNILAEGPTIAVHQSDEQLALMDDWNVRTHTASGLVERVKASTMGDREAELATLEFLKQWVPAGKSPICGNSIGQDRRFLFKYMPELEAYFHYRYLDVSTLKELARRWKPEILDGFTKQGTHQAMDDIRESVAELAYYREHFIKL

[1] = biological target: nucleoside diphosphate kinase (NDK A) (Homo sapiens, UniProt P15531); test: pAp-agarose affinity chromatography of HeLa extract, LC-MS/MS; assay type: cell-based
[2] = biological target: T2, small fragment nuclease (Sfn) (Homo sapiens, UniProt Q9Y3B8); test: Cy5-RNA 5mer degradation assay; assay type: biochemical
T2 sequence (Q9Y3B8 26-237): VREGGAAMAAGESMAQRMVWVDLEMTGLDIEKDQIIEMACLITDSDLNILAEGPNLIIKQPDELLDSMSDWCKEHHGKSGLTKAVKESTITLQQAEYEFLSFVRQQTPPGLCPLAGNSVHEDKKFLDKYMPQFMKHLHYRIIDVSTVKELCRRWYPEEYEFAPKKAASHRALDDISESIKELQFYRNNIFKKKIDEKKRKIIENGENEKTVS

Chain of nucleoside diphosphate kinase (NDK A) (P15531 2-152): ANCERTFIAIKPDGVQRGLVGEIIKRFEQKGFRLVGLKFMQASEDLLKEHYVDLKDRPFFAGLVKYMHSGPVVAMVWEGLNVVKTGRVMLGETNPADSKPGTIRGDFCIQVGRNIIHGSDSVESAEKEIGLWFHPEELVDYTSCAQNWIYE

Structure (SMILES): Nc1ncnc2c1ncn2[C@@H]1O[C@H](COP(=O)(O)O)[C@@H](OP(=O)(O)O)[C@H]1O [pAp]
- Cy5-RNA 5mer degradation assay (gel) with purified Orn; also pAp-agarose affinit (Oligoribonuclease (Orn)): ~ 20 µM
- pAp-agarose affinity chromatography of HeLa extract, LC-MS/MS [1]: The second human enzyme we found to bind to pAp is NDK.
- Cy5-RNA 5mer degradation assay (gel) with purified Sfn; also pAp-agarose capture [2]: ~ 20 µM
